In patent US20260345603A1, “PRMT5 INHIBITORS” (Beijing Earthwise Technology Co., Ltd., priority 2022, published 2026):
pIC50: −log10 of the molar value. Like-named read-outs stand apart in the source and are kept apart here. Each block holds one compound with its values, some of them ahead of it.

What was measured:
Type in all cases: cell-based
[1] = molecular target: T1, cellular SDMA in HCT116^MTAP Deletion cells (Homo sapiens, UniProt O14744); assay: In-Cell Western Assay of cellular SDMA, HCT116 MTAP Deletion; conditions: 96 hours, read-out: SDMA inhibition IC50 in HCT116^MTAP Deletion
T1 construct: in-cell Western of symmetric dimethylarginine
T1 sequence (O14744 whole entry, stated change not applied): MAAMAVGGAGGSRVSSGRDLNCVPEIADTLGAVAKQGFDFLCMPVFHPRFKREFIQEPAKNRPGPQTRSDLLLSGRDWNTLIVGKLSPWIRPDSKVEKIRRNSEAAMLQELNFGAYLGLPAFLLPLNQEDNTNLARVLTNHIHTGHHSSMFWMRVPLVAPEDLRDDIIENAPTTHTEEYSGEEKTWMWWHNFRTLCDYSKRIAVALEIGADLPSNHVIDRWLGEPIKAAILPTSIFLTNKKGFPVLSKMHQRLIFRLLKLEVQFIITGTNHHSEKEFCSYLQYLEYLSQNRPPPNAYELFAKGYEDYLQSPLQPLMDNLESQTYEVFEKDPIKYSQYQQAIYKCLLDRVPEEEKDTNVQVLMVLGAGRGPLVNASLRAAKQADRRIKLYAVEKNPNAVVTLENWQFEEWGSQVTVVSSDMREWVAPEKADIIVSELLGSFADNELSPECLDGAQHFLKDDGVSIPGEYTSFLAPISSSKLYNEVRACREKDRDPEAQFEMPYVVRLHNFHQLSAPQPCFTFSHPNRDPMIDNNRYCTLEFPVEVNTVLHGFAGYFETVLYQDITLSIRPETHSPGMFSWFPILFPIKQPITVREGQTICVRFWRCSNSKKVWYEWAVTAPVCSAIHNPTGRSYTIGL
T1 sequence (Q9BQA1 whole entry partner): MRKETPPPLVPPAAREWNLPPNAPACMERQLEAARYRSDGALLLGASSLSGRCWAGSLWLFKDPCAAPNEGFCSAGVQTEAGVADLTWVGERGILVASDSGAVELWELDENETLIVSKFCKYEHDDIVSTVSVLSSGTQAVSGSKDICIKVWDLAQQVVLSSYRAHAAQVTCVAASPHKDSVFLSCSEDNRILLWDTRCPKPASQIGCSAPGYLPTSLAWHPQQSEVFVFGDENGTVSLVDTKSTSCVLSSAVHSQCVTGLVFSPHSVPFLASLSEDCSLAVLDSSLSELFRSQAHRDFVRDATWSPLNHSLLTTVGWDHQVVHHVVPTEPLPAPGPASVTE
From the text: (§1) HCT116^MTAPD Deletion cells were from Horizon; HCT116 cells were from ATCC; RPMI-1640 medium was purchased from ATCC (USA); penicillin-streptomycin was purchased from Gibco (USA); fetal bovine serum was purchased from ExCell; 96-well plate was purchased from Corning (USA); Symmetric Di-Methyl Arginine Motif [sdme-RG]antibody was purchased from CST (USA); IRDye 800CW Goat anti-Rabbit IgG secondary antibody was purchased from LI-COR (USA), and CellTag 700 stain was purchased from LI-COR (USA).
(§2) Compound dissolution: All the compounds were dissolved in dimethyl sulfoxide (DMSO) and then stored. The compounds were stored at −20 °C for long term storage.
(§3) The cells were cultured strictly in accordance with ATCC requirements. The cell culture medium (RPMI-1640 medium+10% serum+1% penicillin+streptomycin) was transferred to a 15 mL centrifuge tube and centrifuged at 1000 rpm for 5 min. The supernatant was removed. The cells were resuspended with complete culture medium, inoculated into a culture dish at the required density, and cultured in an incubator at 37 °C, 95% humid air, and 5% carbon dioxide. The culture medium was replenished or the cells were passaged every 2-3 days depending on the cell growth condition.
When the confluency of cells in the culture dish reached about 90%, the cells were washed twice with PBS, and then digested with trypsin. 100 μl of the cells was inoculated into each well of a 96-well plate (800 cells/well). The plate was incubated overnight in a 37 °C and 5% CO2 incubator. 50 μL of 3× final concentration of a compound was added to the cell culture plate. Each compound was subjected to a 3-fold dilution, resulting in 10 concentration gradients, in duplicate, and the final concentration of DMSO was 0.5%. The plate was incubated in a 37 °C and 5% CO2 incubator for 96 hours.
150 μL of 8% paraformaldehyde was added to each well, and the plate was incubated at room temperature for 15 minutes. The supernatant was discarded. The plate was washed with PBS, and 200 μL of freshly prepared 1× Permeabilization buffer was added to each well. The plate was incubated at room temperature for 30 minutes. The supernatant was discarded. 200 μL of 1× Blocking buffer was added to each well, and the plate was incubated at room temperature for 2 hours. The supernatant was discarded. 50 μL of primary antibody (CST, 1× Incubation buffer 1:500 dilution) was added to each well, and the plate was incubated at 4 °C overnight. The supernatant was discarded. 250 μL of 1× Washing buffer was added to each well, and the plate was washed three times. 50 μL of secondary antibody (IRDye 800CW Goat anti-Rabbit IgG and CellTag 700 dye, 1:800 and 1:500 diluted in Incubation buffer) was added to each well, and the plate was incubated at room temperature for 1 hour. The supernatant was discarded. The plate was washed with 1× Washing buffer. Signals were detected using Licor Odyssey CLX. […] According to the different drug concentrations and their corresponding inhibition rates, the IC50 curve was drawn using GraphPad 8.0 software. The data were analyzed, and the final IC50 value was obtained.

[2] = tested on: HCT116^MTAP Deletion cells; assay: Anti-proliferation assay on cells (CTG, 10 days), HCT116 MTAP Deletion
Experimental: (§4) HCT116^MTAD Deletion cells were from Pharmaron (China); HCT116 cells were from ATCC; McCoy's 5A medium was purchased from Invitrogen (USA); penicillin-streptomycin and fetal bovine serum were purchased from Gibco (USA); a 384-well plate was purchased from PerkinElmer (USA); and Cell-Titer Glo reagent was purchased from Promega (USA).
(§5) Compound dissolution: All the compounds were dissolved in dimethyl sulfoxide (DMSO) and then stored. The compounds were stored at room temperature in a dry condition for 3 months for short term storage or at −20 °C for long term storage.
as §3, with “(McCoy's 5A” for “(RPMI-1640”, “medium+10% fetal bovine” for “medium+10%”
(§6) When the confluency of cells in the culture dish reached about 90%, the cells were washed twice with PBS, and then treated with trypsin to become single cells. The cells were counted, and 40 μl of the cells was inoculated into each well of a 384-well plate (50 cells/well). The plate was equilibrated at 37 °C and 5% carbon dioxide for 10 to 15 minutes. The compounds were injected into the 384-well plate using Echo550, and positive control and negative control (0.1% DMSO) were set up. Each compound was subjected to a 3-fold dilution, resulting in 10 concentration gradients, in duplicate, and the content of DMSO was 0.1%. The 384-well plate was incubated in a cell culture incubator for 10 days.
(§7) Then, 40 μl of cell proliferation assay reagent (CTG) was added to the 384-well plate, and the plate was shaken to mix well. Then, the 384-well plate was incubated at 37 °C and 5% carbon dioxide in the dark for 30 minutes. The data were read using the Envision multifunctional microplate reader. […] According to the different drug concentrations and their corresponding inhibition rates, the GI50 curve was drawn using GraphPad 8.0 software. The data were analyzed, and the final GI50 value was obtained.

[3] = tested on: HCT116 cells (HCT116^MTAP WT); assay: Anti-proliferation assay on cells (CTG, 10 days), HCT116 (MTAP WT); conditions: for selectivity (HCT116 vs HCT116^MTAP Deletion GI50): 14400 min; for GI50: Homo sapiens, HCT-116, HCT116 (MTAP WT); for Selectivity multiple of HCT116^MTAP WT GI50/HCT116^MTAP Deletion GI50: ratio HCT116 MTAP WT GI50 / HCT116 MTAP Deletion GI50
Experimental: as §4, §5
as §3, with “(McCoy's 5A” for “(RPMI-1640”, “medium+10% fetal bovine” for “medium+10%”
as §6, §7

[4] = tested on: cellular SDMA in HCT116 cells; assay: In-Cell Western Assay of cellular SDMA, HCT116; conditions: Homo sapiens, HCT-116, 96 hours, read-out: SDMA inhibition IC50 in HCT116
From the text: as §1, §2
as §3, with “The culture medium was replenished or the cells were passaged every 2-3 days depending on the cell growth condition.” left out
150 μL of 8% paraformaldehyde was added to each well, and the plate was incubated at room temperature for 15 minutes. […] Signals were detected using Licor Odyssey CLX. […] The data were analyzed, and the final IC50 value was obtained.

[5] = Homo sapiens, HCT-116, 240 h, anti-proliferative activity, HCT116 MTAP Deletion, 10 days, class symbols, read-out: HCT116^MTAP Deletion GI50
[6] = Homo sapiens, HCT-116, HCT116 MTAP Deletion, read-out: GI50 for HCT116^MTAP Deletion
[7] = anti-proliferative activity, HCT116 MTAP Deletion, 10 days, class symbols, read-out: HCT116^MTAP Deletion GI50

Structure (SMILES): Cc1ncc(-c2ccc3c(c2)COCC3N(C)C(=O)C(=O)Nc2cnc(N)c3c2cnn3C)s1 (stereo not shown) [Example 135]
- pIC50 [1]: ≥ 8.00
- GI50 [2, 5]: ≤ 10 nM

Structure (SMILES): CN(C(=O)C(=O)Nc1cnc(N)c2c1cnn2C)C1COCc2cc(-c3ccnn3C)ccc21 (stereo not shown) [Example 156-P1]
- pIC50 [1]: ≥ 8.00

Structure (SMILES): CN(C(=O)C(=O)Nc1cnc(N)c2c1cnn2C)C1COCc2cc(C(F)(F)F)ccc21 (stereo not shown) [Example 106-P2]
- pIC50 [4]: 7.00 to 8.00
- pIC50 [1]: ≥ 8.00
- Selectivity multiple of HCT116^MTAP WT GI50/HCT116^MTAP Deletion GI50 [3]: 169
- GI50 [2, 7]: ≤ 10 nM

Structure (SMILES): CN(C(=O)C(=O)Nc1cnc(N)c2c1cnn2C)C1COc2cc(C(F)(F)F)ccc21 (single isomer, unassigned) [Example 112-P1]
- pIC50 [4]: 6.00 to 7.00
- pIC50 [1]: ≥ 8.00
- GI50 [2, 7]: ≤ 10 nM

Structure (SMILES): CN(C(=O)C(=O)Nc1cnc(N)c2c1cnn2C)C1COCc2nc(C(F)(F)F)ccc21 (stereo not shown) [Example 152-P2]
- pIC50 [1]: 7.00 to 8.00

Structure (SMILES): CN(C(=O)C(=O)Nc1cnc(N)c2c1cnn2C)C1COc2cc(-c3ccnn3C)ccc21 (stereo not shown) [Example 192-P1]
- pIC50 [1]: ≥ 8.00

Structure (SMILES): CN(C(=O)C(=O)Nc1cnc(N)c2c1cnn2C)C1COCc2cc(Cl)c(Cl)cc21 (single isomer, unassigned) [Example 163-P1]
- Selectivity multiple of HCT116^MTAP WT GI50/HCT116^MTAP Deletion GI50 [3]: 94

Structure (SMILES): COc1ncc(NC(=O)C(=O)N(Cc2ccc(C(F)(F)F)cn2)[C@H](C)c2ncccn2)cc1C(N)=O [Example 25]
- GI50 [2, 5]: 10 to 100 nM

Structure (SMILES): Cc1cc(NC(=O)C(=O)N(Cc2ccc(C(F)(F)F)cn2)c2cnn(C)c2)cnc1N [Example 18]
- GI50 [2, 5]: 100 to 1000 nM

Structure (SMILES): CC1OCC(N(C)C(=O)C(=O)Nc2cnc(N)c3c2cnn3C)c2ccc(C(F)(F)F)cc21 (stereo not shown) [Compound 187]
- GI50 [2, 5]: ≤ 10 nM

Structure (SMILES): CN(C(=O)C(=O)Nc1cnc(N)c2c1cnn2C)C1COc2cc(F)c(F)cc21 (racemic) [Compound 172]
- GI50 [2, 5]: 10 to 100 nM

Structure (SMILES): Cc1cc(NC(=O)C(=O)N(Cc2ccc(C(F)(F)F)cn2)CC2CC2)cnc1N [Example 15]
- GI50 [2, 5]: 10 to 100 nM

Structure (SMILES): Cc1cc(NC(=O)C(=O)N(Cc2ccc(C(F)(F)F)cn2)C(C)(C)C)cnc1N [Example 33]
- selectivity (HCT116 vs HCT116^MTAP Deletion GI50) [3]: more than 300 times
- GI50 [3]: 1000 to 10000 nM
- GI50 [2, 5]: 1000 to 10000 nM
- GI50 [2, 6]: ≤ 100 nM

Structure (SMILES): CN(C(=O)C(=O)Nc1cnc(N)c2c1cnn2C)C1COc2cc(Cl)c(Cl)cc21 (racemic) [Compound 186]
- GI50 [2, 5]: ≤ 10 nM

Structure (SMILES): Cn1ncc2c(NC(=O)C(=O)N(Cc3ccc(C(F)(F)F)cn3)CC3CCC3)cnc(N)c21 [Example 4]
- GI50 [2, 5]: 10 to 100 nM

Structure (SMILES): CN(C(=O)C(=O)Nc1cnc(N)c2c1cnn2C)C1COc2cc(Br)ccc21 (racemic) [Compound 180]
- GI50 [2, 5]: ≤ 10 nM

Structure (SMILES): C[C@H](c1ncccn1)N(Cc1ccc(C(F)(F)F)cn1)C(=O)C(=O)Nc1cnc(N)c2ccncc12 [Example 32]
- GI50 [2, 5]: 100 to 1000 nM

Structure (SMILES): CN(C(=O)C(=O)Nc1cnc(N)c2c1cnn2C)C1COCc2cc(-c3cnn(C)c3)ccc21 (stereo not shown) [Example 124-P1]
- GI50 [2, 7]: ≤ 10 nM

Continued, values first:

- selectivity (HCT116 vs HCT116^MTAP Deletion GI50) [3]: more than 300 times
- GI50 [3]: 1000 to 10000 nM
- GI50 [2, 5]: 100 to 1000 nM
- GI50 [2, 6]: ≤ 100 nM
Structure (SMILES): C[C@H](c1ncccn1)N(Cc1ccc(C(F)(F)F)cn1)C(=O)C(=O)Nc1cnc(N)c2cnn(C)c12 [Example 34]

- Selectivity multiple of HCT116^MTAP WT GI50/HCT116^MTAP Deletion GI50 [3]: 160
- GI50 [2, 5]: ≤ 10 nM
Structure (SMILES): CN(C(=O)C(=O)Nc1cnc(N)c2c1cnn2C)C1COc2cc(C(F)(F)F)ccc21 (stereo not shown) [Example 89]

- GI50 [2, 5]: 10 to 100 nM
Structure (SMILES): Cc1cc(NC(=O)C(=O)N(Cc2ccc(C(F)(F)F)cn2)CC2CCCC2)cnc1N [Example 17]

- GI50 [2, 5]: ≤ 10 nM
Structure (SMILES): CN(C(=O)C(=O)Nc1cnc(N)c2c1cnn2C)C1COc2cc(-c3cnn(C4CC4)c3)ccc21 (stereo not shown) [Example 211]

- pIC50 [1]: ≥ 8.00
- GI50 [2, 7]: ≤ 10 nM
Structure (SMILES): CN(C(=O)C(=O)Nc1cnc(N)c2c1cnn2C)C1COCc2cc(C3=CCOCC3)ccc21 (stereo not shown) [Example 132-P1]

- GI50 [2, 5]: ≤ 10 nM
Structure (SMILES): CN(C(=O)C(=O)Nc1cnc(N)c2c1cnn2C)C1COCc2cc(-c3ccnn3C)ccc21 (stereo not shown) [Example 137]

- GI50 [2, 5]: ≤ 10 nM
Structure (SMILES): Cc1ncc(-c2ccc3c(c2)COCC3N(C)C(=O)C(=O)Nc2cnc(N)c3c2cnn3C)s1 (racemic) [Compound 181]

- GI50 [2, 5]: 100 to 1000 nM
Structure (SMILES): Nc1ncc(NC(=O)C(=O)N(Cc2ccc(C(F)(F)F)cn2)CC2CCC2)c2c1COC2 [Example 41]

- GI50 [2, 5]: 100 to 1000 nM
Structure (SMILES): Cc1cc(NC(=O)C(=O)N(Cc2ccc(C3=CCOCC3)nn2)[C@H](C)c2ncccn2)cnc1N [Example 42]

- GI50 [2, 5]: 100 to 1000 nM
Structure (SMILES): Cc1cc(N)ncc1NC(=O)C(=O)N(Cc1ccc(C(F)(F)F)cn1)[C@H](C)c1ncccn1 [Example 26]

- GI50 [2, 5]: 10 to 100 nM
Structure (SMILES): CN(C(=O)C(=O)Nc1cnc(N)c2c1cnn2C)C1COCc2c(F)cc(Cl)cc21 (racemic) [Compound 155]
